Common to all, as to assay: Protein kinase activity in the presence of compound
Holding throughout (format): biochemical

One assay has as its target ROCK-II (Homo sapiens, UniProt O75116). As to conditions: read-out: Residual activity ROCK-II. On the procedure: (§1) The action of the compound of formula (14) was tested on a selection of 29 different protein kinases. The activity of these enzymes was measured in the presence of 10 μM of compound, according to the general methodology described by Bain et al. (2003) Biochem. J. 371:199-204 and Davies et al. (2000) Biochem. J. 351:95-105.
(§2) Residual enzyme activity of protein kinases in the presence of inhibitor compounds at the concentration given (expressed as a percentage of the activity measured in the absence of inhibitors). The results obtained for gossypol and gossypolone are given by way of comparison.

The next assay addresses PKA (Homo sapiens, UniProt P17612). As to conditions: read-out: Residual activity PKA. As for the experimental part: as §1, §2
The target of the next assay is T1, PRAK (Homo sapiens, UniProt Q8IW41).
T1 sequence (Q8IW41 1-473): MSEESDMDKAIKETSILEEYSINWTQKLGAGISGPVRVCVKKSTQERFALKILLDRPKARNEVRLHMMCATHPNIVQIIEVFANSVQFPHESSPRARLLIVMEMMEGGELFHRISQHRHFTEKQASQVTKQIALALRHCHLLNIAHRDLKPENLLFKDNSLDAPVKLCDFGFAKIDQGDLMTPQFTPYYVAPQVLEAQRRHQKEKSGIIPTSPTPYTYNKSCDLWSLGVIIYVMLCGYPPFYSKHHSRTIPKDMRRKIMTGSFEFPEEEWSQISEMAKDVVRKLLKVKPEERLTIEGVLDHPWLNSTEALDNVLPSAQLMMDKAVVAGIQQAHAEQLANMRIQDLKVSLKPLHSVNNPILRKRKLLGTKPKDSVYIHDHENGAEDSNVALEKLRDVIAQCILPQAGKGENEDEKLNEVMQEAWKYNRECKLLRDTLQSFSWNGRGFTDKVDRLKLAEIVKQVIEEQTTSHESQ
As to conditions: for remaining activity at 10 µM: read-out: Residual activity PRAK. On the procedure: as §1, §2

A further assay has as its target MSK1 (Homo sapiens, UniProt O75582). The conditions noted are these: read-out: Residual activity MSK1. On the procedure:
as §1, §2

Another assay deals with MAPKAP-K2 (Homo sapiens, UniProt P49137). The conditions noted are these: read-out: Residual activity MAPKAP-K2. On the procedure:
as §1, §2

Another assay deals with MAPK2/ERK2 (Homo sapiens, UniProt P28482). As to conditions: read-out: Residual activity MAPK2/ERK2. On the procedure: as §1, §2
A further assay concerns the target MKK1 (Homo sapiens, UniProt Q02750). As to conditions: read-out: Residual activity MKK1. On the procedure:
as §1, §2

For another assay, the target named is CDK2/cyclin A (Homo sapiens, UniProt P24941). The conditions noted are these: read-out: Residual activity CDK2/cyclin A. On the procedure: as §1, §2
The next assay addresses T2, SAPK3/p38g (Homo sapiens, UniProt P53778).
T2 sequence (P53778 1-367): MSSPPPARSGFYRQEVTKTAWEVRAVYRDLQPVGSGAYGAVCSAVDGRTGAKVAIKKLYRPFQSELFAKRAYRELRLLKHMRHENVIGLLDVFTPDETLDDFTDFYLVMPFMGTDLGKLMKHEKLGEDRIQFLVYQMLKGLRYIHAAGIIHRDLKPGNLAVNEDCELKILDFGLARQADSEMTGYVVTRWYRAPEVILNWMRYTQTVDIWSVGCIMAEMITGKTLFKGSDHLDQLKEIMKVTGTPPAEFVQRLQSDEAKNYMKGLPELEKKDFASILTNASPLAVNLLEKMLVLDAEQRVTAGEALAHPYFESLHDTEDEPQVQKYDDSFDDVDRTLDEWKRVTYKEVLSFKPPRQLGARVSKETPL
As to conditions: read-out: Residual activity SAPK3/p38g. As for the experimental part:
as §1, §2

Another assay deals with NEK6 (Homo sapiens, UniProt Q9HC98). As to conditions: read-out: Residual activity NEK6. On the procedure: as §1, §2
A further assay addresses MAPKAP-K1a (Homo sapiens, UniProt Q15418). The conditions noted are these: read-out: Residual activity MAPKAP-K1a. On the procedure: as §1, §2
A further assay deals with JNK/SAPK1c (Homo sapiens, UniProt P45983). As to conditions: read-out: Residual activity JNK/SAPK1c. As for the experimental part: as §1, §2
In the next assay the target is GSK3b (Homo sapiens, UniProt P49841). The conditions noted are these: read-out: Residual activity GSK3b. As for the experimental part:
as §1, §2

In the next assay the target is PHK (Oryctolagus cuniculus, UniProt P00518). As to conditions: read-out: Residual activity PHK. On the procedure: as §1, §2
The next assay concerns the target T3, CHK1 (Homo sapiens, UniProt O14757).
T3 sequence (O14757 1-476): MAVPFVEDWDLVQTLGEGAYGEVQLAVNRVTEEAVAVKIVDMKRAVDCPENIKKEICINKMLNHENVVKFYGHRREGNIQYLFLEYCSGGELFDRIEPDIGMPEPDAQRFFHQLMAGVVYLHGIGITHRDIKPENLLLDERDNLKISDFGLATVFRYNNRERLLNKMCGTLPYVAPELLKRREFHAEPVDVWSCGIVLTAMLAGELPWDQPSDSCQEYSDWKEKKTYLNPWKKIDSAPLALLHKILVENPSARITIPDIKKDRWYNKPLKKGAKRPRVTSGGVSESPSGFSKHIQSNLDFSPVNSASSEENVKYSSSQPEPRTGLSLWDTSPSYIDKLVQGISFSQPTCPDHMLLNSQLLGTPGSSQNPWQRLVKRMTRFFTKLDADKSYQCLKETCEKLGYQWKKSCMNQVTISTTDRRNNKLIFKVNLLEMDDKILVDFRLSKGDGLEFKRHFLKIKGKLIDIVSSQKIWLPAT
As to conditions: read-out: Residual activity CHK1. As for the experimental part:
as §1, §2

The next assay addresses SAPK2b/p38β2 (Homo sapiens, UniProt Q15759). As to conditions: read-out: Residual activity SAPK2b/p38β2. On the procedure: as §1, §2
For the next assay, the target named is Lck (Homo sapiens, UniProt P06239). The conditions noted are these: read-out: Residual activity Lck. As for the experimental part:
as §1, §2

The target in another assay is SAPK2a/p38 (Homo sapiens, UniProt Q16539). As to conditions: read-out: Residual activity SAPK2a/p38. On the procedure:
as §1, §2

The subject of the next assay is AMPK. As to conditions: 10 μM compound; percentage of the activity measured in the absence of inhibitors. As for the experimental part: as §1, §2
Setting [1] is: 10 μM compound, percentage of the activity measured in the absence of inhibitors.

Like-named read-outs stand apart in the source and are kept apart here.

Sequence of SAPK2b/p38β2 (Q15759 whole entry): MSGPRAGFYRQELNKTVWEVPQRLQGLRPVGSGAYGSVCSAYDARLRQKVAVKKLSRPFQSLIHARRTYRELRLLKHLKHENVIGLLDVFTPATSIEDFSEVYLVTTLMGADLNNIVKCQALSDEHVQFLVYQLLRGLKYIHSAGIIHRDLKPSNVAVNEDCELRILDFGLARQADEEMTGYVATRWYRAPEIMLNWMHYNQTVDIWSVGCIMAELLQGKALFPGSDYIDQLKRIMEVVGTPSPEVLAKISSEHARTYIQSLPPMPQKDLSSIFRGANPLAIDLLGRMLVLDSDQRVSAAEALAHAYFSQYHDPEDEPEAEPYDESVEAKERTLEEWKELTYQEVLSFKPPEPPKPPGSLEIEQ
Sequence of MKK1 (Q02750 whole entry, species assumed): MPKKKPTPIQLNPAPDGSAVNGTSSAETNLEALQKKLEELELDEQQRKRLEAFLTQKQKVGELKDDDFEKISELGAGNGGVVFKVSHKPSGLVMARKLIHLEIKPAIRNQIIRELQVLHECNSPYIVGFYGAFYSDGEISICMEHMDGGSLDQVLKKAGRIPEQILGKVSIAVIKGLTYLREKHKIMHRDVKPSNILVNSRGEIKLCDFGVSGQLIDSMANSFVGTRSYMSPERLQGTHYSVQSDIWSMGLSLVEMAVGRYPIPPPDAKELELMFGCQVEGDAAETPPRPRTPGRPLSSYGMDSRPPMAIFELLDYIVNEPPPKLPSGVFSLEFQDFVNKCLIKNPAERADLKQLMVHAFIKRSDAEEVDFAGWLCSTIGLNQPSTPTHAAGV
Sequence of Lck (P06239 whole entry, species assumed): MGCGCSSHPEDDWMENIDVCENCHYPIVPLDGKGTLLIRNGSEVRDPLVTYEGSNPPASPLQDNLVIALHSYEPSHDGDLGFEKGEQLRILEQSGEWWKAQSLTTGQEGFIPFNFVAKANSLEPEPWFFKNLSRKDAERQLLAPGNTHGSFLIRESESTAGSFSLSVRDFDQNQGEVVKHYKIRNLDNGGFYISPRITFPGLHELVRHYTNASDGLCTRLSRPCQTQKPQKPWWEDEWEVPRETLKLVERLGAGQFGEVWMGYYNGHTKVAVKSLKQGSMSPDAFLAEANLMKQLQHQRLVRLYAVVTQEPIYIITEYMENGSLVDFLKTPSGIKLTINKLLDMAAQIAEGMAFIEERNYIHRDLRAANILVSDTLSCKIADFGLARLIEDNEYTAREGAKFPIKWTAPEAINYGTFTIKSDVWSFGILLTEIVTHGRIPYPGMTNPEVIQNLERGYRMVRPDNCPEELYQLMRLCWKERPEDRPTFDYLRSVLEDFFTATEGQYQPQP
Sequence of SAPK2a/p38 (Q16539 whole entry): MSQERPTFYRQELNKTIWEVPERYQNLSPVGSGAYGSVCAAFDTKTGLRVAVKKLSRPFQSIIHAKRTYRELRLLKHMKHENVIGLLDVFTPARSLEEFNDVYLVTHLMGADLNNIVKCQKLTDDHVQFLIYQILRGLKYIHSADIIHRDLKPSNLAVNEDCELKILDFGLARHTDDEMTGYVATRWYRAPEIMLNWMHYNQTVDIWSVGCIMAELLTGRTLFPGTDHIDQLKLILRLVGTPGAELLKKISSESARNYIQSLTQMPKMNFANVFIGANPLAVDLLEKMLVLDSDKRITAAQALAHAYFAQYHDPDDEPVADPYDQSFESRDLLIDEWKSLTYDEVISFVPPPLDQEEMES
Sequence of MAPKAP-K1a (Q15418 whole entry, species assumed): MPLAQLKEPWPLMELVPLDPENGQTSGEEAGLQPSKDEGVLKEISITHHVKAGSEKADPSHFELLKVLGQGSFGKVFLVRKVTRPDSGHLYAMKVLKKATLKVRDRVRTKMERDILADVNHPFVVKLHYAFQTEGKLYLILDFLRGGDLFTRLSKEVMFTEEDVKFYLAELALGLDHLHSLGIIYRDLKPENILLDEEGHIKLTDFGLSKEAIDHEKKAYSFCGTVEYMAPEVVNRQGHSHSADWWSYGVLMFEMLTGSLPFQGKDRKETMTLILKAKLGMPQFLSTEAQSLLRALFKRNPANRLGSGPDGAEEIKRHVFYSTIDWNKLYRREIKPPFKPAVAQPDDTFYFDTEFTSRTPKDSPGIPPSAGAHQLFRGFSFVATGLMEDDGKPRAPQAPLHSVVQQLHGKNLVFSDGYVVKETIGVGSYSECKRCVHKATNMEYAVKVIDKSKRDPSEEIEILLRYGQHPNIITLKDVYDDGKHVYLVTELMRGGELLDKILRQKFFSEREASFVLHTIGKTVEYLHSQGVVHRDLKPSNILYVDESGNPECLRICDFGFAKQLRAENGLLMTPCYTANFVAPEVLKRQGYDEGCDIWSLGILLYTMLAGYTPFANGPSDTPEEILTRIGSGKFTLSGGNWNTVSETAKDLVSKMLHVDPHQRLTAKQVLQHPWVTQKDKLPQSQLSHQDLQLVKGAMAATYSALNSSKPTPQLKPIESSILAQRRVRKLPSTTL
Sequence of NEK6 (Q9HC98 whole entry, species assumed): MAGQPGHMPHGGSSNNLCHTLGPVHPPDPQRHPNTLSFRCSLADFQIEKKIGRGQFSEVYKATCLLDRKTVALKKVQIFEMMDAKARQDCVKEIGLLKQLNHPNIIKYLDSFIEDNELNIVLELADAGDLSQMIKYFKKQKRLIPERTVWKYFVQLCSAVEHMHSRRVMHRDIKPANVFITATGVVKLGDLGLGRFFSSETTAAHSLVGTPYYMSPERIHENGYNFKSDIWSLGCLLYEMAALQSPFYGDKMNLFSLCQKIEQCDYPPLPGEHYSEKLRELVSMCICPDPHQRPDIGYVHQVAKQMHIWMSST
Sequence of MAPK2/ERK2 (P28482 whole entry): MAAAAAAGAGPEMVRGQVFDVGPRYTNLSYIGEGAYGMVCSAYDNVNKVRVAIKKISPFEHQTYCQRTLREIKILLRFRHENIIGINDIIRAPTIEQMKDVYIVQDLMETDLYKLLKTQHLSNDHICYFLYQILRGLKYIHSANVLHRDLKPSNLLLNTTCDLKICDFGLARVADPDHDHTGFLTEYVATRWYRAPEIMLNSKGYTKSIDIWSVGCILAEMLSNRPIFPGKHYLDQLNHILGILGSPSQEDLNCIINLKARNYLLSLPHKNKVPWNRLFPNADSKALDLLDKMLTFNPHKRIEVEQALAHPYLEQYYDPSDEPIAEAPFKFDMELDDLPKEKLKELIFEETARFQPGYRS
Sequence of JNK/SAPK1c (P45983 whole entry): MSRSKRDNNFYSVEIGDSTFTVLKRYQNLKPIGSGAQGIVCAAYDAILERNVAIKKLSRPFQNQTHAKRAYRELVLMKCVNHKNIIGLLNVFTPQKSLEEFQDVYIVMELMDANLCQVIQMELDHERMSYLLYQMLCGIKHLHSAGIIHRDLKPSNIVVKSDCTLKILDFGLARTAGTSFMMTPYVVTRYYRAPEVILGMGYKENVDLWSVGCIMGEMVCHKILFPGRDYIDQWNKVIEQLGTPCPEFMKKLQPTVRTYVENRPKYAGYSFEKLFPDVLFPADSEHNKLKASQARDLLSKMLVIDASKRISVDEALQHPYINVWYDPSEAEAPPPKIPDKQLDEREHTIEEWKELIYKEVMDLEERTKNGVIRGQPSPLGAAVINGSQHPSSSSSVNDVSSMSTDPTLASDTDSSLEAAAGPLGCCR
Sequence of MSK1 (O75582 whole entry, species assumed): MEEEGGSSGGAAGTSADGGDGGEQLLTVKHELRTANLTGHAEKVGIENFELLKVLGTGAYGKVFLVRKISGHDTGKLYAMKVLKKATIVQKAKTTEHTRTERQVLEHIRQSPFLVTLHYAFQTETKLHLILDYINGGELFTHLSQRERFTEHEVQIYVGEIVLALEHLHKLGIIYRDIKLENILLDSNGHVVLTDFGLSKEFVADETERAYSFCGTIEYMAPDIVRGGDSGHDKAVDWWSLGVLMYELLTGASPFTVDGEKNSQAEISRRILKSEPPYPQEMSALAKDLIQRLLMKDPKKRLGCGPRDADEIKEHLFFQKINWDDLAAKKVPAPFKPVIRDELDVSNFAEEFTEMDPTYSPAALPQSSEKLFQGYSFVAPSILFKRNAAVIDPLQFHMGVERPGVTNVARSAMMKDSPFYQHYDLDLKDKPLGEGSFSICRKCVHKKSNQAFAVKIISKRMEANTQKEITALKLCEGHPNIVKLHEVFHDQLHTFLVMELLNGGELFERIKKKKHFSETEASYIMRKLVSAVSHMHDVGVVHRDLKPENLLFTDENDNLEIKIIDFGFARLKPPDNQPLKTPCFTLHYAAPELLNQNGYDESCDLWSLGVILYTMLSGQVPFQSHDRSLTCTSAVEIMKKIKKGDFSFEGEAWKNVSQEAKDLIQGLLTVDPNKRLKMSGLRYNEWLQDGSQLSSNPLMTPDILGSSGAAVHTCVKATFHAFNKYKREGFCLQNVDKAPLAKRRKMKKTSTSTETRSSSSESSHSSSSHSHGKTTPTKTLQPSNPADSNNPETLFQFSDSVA
Sequence of MAPKAP-K2 (P49137 whole entry, species assumed): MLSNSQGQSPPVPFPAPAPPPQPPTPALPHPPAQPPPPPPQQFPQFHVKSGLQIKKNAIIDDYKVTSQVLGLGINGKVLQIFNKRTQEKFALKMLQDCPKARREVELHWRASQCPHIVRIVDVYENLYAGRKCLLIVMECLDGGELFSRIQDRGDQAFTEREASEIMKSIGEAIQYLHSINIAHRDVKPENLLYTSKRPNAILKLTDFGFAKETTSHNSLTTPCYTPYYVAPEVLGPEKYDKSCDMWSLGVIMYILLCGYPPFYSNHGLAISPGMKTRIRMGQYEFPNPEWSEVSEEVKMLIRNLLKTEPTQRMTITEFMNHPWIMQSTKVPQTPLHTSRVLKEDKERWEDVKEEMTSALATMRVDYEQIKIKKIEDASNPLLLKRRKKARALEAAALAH

As to `CC1=C(C2=C(C)C(=O)c3c(c(O)c(O)c(O)c3C(C)C)C2=O)C(=O)c2c(O)c(O)c(O)c(C(C)C)c2C1=O` [Compound (4), 6,7,8,6′,7′,8′-hexahydroxy-5,5′-diisopropyl-3,3′-dimethyl-[2.2′]binaphthalenyl-1,4,1′,4′-tetraone], the remaining activity at 10 µM was determined as 75% at ROCK-II; 69% at PKA; 9% on PRAK; 69% at MSK1; 28% at MAPKAP-K2; 52% on MAPK2/ERK2. In addition, the remaining activity at 10 µM at MKK1 stood at 59%; at CDK2/cyclin A, 113%; at SAPK3/p38g, 89%; at NEK6, 86%; at MAPKAP-K1a, 58%; at JNK/SAPK1c it was 105%. Further, the remaining activity at 10 µM on GSK3b stood at 63%; on PHK it was 47%; at CHK1, 127%; at SAPK2b/p38β2, 124%; at Lck, 71%; at SAPK2a/p38, 105%. Further, the “Reduction of the activity of PRAK” value at PRAK (10 μM compound) is 91%. Also, the “Residual activity AMPK” value in the assay with AMPK was 61%.

Take `CC1=C(C2=C(C)C(=O)c3c(c(CSCCO)c(O)c(O)c3C(C)C)C2=O)C(=O)c2c(CSCCO)c(O)c(O)c(C(C)C)c2C1=O` [Compound (14), 6,7,6′,7′-tetrahydroxy-8,8′-bis-(2-hydroxy-ethylsulphanylmethyl)-5,5′-diisopropyl-3,3′-dimethyl-[2,2′]binaphthalenyl-1,4,1′,4′-tetraone]: the remaining activity at 10 µM was 73% on ROCK-II (setting [1]); 59% at PKA (setting [1]); 9% on PRAK (setting [1]); 83% at MSK1 (setting [1]); 36% at MAPKAP-K2 (setting [1]); 58% at MAPK2/ERK2 (setting [1]). The remaining activity at 10 µM on MKK1 (setting [1]) stood at 90%; at CDK2/cyclin A (setting [1]), 111%; at SAPK3/p38g (setting [1]) it was 76%; on NEK6 (setting [1]), 81%; at MAPKAP-K1a (setting [1]), 60%; at JNK/SAPK1c (setting [1]) it was 88%. In addition, the remaining activity at 10 µM amounted to 85% at GSK3b (setting [1]); 27% at PHK (setting [1]); 47% at CHK1 (setting [1]); 113% at SAPK2b/p38β2 (setting [1]); 54% on Lck (setting [1]); 102% on SAPK2a/p38 (setting [1]). In addition, the “Reduction of the activity of PRAK” value at PRAK (10 μM compound) is 91%. In the assay on AMPK, the “Residual activity AMPK” value was 70%.

Take `Cc1cc2c(C(C)C)c(O)c(O)c(C=O)c2c(O)c1-c1c(C)cc2c(C(C)C)c(O)c(O)c(C=O)c2c1O` [Gossypol, gossypol]: the remaining activity at 10 µM on ROCK-II is 80%; on PKA, 47%; at PRAK, 48%; at MSK1, 79%; on MAPKAP-K2, 56%; on MAPK2/ERK2, 65%. Also, the remaining activity at 10 µM came out at 86% at MKK1; 97% at CDK2/cyclin A; 108% on SAPK3/p38g; 92% on NEK6; 77% on MAPKAP-K1a; 90% at JNK/SAPK1c. Besides, the remaining activity at 10 µM on GSK3b was found to be 47%; on PHK, 23%; at CHK1, 9%; at SAPK2b/p38β2, 125%; at Lck, 76%; at SAPK2a/p38 it was 99%. In addition, the “Residual activity AMPK” value with AMPK amounted to 72%.
